One experiment relates to 3T3-L1 adipocytes. Kind of experiment: Endogenous GLUT4 accumulation in the TIRF zone (fixed adipocytes). The experiment is classed as cell-based, mouse. To be noted: 100 nM insulin; scrambled siRNA. How it is done:
FIG. 2, panels A-C show knockdown of CDP138 in 3T3-L1 adipocytes inhibits insulin-stimulated glucose transport (A) and myc-GLUT4-GFP translocation (B), but not endogenous GLUT4 movement to the periphery detected in TIRF zone (C). (A): Differentiated adipocytes at day 5 were transfected with siRNAs against mouse 5730419I09Rik or the scrambled siRNA (Scr) as described earlier (Jiang et al., 2003) for 60 hrs, then serum starved overnight. Cells were then treated with or without insulin (1 nM and 100 nM) for 30 min for the glucose uptake assay, or 15 min for immunoblotting of CDP138, pAkt, Akt and β-actin. […] Cell surface Myc-GLUT4-GFP was detected with anti-myc monoclonal Ab (9E10) and Alexa Fluor 568-labeled goat anti-mouse IgG in non-permeablized cells. The Myc signal and GFP signal were quantified as previously described (Jiang et al., 2002). […] GLUT4 was detected with a goat anti-GLUT4 Ab and Alexa Fluor 488-conjugated donkey anti-goat Ab in permeabilized cells. […] We also quantified endogenous GLUT4 redistribution to the PM using total internal reflection fluorescence microscopy (TIRFM) with a setting of about 100 nm distance from the coverslip (FIG. 2C, top panel). For this experiment, endogenous GLUT4 was detected by immunofluorescent staining with a goat anti-GLUT4 Ab that recognizes the cytoplasmic C-terminus of GLUT4. […]

A further experiment deals with CDP138. Kind of experiment: SILAC quantitative phosphoproteomics with PAS antibody immunoprecipitation in 3T3-L1 adipocytes. The experiment is classed as cell-based, mouse. To be noted: insulin-stimulated adipocytes. How it is done:
Preparation of the Triple-Labeling SILAC Media. Arginine- and lysine-free DMEM was divided into three equal portions and 28 mg/liter of the three Arginine isotopes were added separately to make the Arg-0, Arg-6, and Arg-10 media, respectively. In addition, 48.7 mg/liter L-lysine, L-lysine-D4, and L-lysine13C6, 15N2 were supplemented separately to the three lots containing Arg-0, Arg-6, and Arg-10. Finally, glutamine and antibiotics were added to the media together with the full complement of amino acids (Arg-0/Lys-H4, Arg-6/Lys-D4, and Arg-10/Lys-8) and then sterile-filtered (Millipore). The sterile media were separated into two portions for dialyzed serum-containing and serum free media.
Mass Spectrometric Analysis. For SILAC quantitative proteomic study, the mixture of total lysates from the 3 different groups (as shown in FIG. 1A) was used for immunoprecipitation with PAS antibodies. Enriched proteins were resolved by SDS-PAGE. […] Only proteins that had at least 2 ion scores >20 were identified and quantified. MaxQuant was used to verify and quantify the resulting peptide pairs.
Identification of CDP138 as a novel Akt2 substrate using SILAC-based quantitative proteomics. […] The tryptic peptides were subsequently analyzed by tandem mass spectrometry (MS). […]

The record followed here is patent US20120204273A1, “COMPOSITIONS RELATING TO A PHOSPHOPROTEIN AND METHODS OF USE” (SANFORD-BURNHAM MEDICAL RESEARCH INSTITUTE, priority 2010, published 2012).

insulin: the “enhancement of GLUT4 signal in the TIRF zone” value in the experiment with 3T3-L1 adipocytes is “about 2.5 fold”. In addition, the “enrichment of CDP138 in PAS immunoprecipitate” value in the experiment on CDP138 amounted to 2.8 fold.
